Experimental data published in patent publication US7626044B2, “Triptolide derivatives and their uses” (priority 2002, dated 2009).

Legend:
[1] = system: C57BL/6 skin allograft on BALB/c mice; experiment: Murine skin allograft transplantation; type: in vivo, mouse; details: C57BL/6 skin to BALB/c mice; daily i.p.; preliminary results
Description: Full-thickness tail skin was aseptically harvested from adult C57BL/6 mice.
The skin allografts were transplanted onto the flank of adult recipient BALB/c mice.
Engrafted mice were administered LLDT-8 daily or, as a control, phosphate-buffered saline (PBS) by intraperitoneal (i.p.) injection.

[2] = system: DNFB-induced mouse DTH response; experiment: DNFB-induced mouse delayed type hypersensitivity response (DTH); type: in vivo
Description: Female Balb/c mice (age of 6-8 wk) were randomly divided into groups and immunized with 20 μl 0.5% DNFB solution in absolute acetone-olive oil (4:1) on each hind foot on day 0 and 1;
7-9 days after the initial immunization, mice were boosted with 10 μl 0.4% DNFB on both sides of the left ear, whereas the right ear was treated with vehicle alone;
Compounds were administered intraperitoneally (i.p.) or orally (p.o.) to the mice 1 h before DNFB booster immunization and 12 h later.
Ear swelling and other indexes were assessed 24-48 h after booster immunization.
Note: Female ICR mice (age of 6-8 wk) were immunized with 0.7% DNFB solution and boosted with 0.6% DNFB solution.

[3] = system: HL-60 (human myeloblastic); experiment: Tumor cell proliferation, HL-60; type: cell-based; details: read-out: Inhibitory effect on tumor cell proliferation IC50
[4] = system: murine T lymphocytes; experiment: Induction of T lymphocyte apoptosis (PI staining, FACS); type: cell-based, mouse
Description: (1) The Tuf-tainer (non-adherent to cells) was pretreated with culture medium for 2 h;
(2) As that described in proliferation assay, Balb/c mice were sacrificed and their spleens were removed aseptically. A single cell suspension was prepared and resuspended in RPMI-1640 media at 5×10^6/ml.
(3) Cells were added to 5 μg/ml ConA or medium;
(4) The cells were cultured in 5% CO2 incubator at 37° C. for 24-96 h;
(5) Cells were collected and washed with PBS, centrifugated at 400 g for 10 min at 4° C.;
(6) The collected cells were shaken 10 s violently and 1 ml ice-cold 70% ethanol was added dropwise, capped and fixed overnight at […].;
(7) The cells were centrifuged at 3000 rpm for 5 min and the ethanol was removed; Incubated cells with 1 ml PI staining buffer at room temperature more than 30 min; FACs analysis was performed with 24 h.

[5] = system: T lymphocyte; experiment: ConA induced T-lymphocyte proliferation ([3H]thymidine); type: cell-based, mouse
Description: Mice were sacrificed by cervical dislocation, and spleens were collected under sterile conditions then teased through a nylon mesh. Erythrocytes were lysed. Cells were washed and resuspended at 5×10^6/ml in RPMI-1640 media containing 10% FBS. For one 96 well plate assay, 100 pt of cells, 50 μl of sample and 50 μl of ConA/LPS were added into each well with the final volume 200 μl. The control wells were set up with 50 μl of RPMI-1640 media instead of ConA/LPS.
Plates were incubated for 48 h (ConA) or 60 h (LPS), respectively, at 37° C., 5% CO2 in a humidified incubator. In the last 8 h of incubation, 25 μl (1.9×10^10 Bq) of [^3H]thymidine was added. After plates were incubated for 48 h, the plates (ConA) were stored at −20° C., then after another 12 h, the plates (LPS) were stored at −20° C.
At the end of incubation, pulsed cells were harvested on a glass filter using a cell harvester ([…]96®, TOMTEC) and allowed to dry. Incorporation of radioactive thymidine was determined by using liquid Scintillation and Luminescence Counters (MicroBeta Trilux®, PerkinElmer).

[6] = system: ConA-stimulated lymphocytes; experiment: IL-2 production from ConA-stimulated lymphocytes (ELISA); type: cell-based, mouse; details: without drug 3724.4
Description: Mice were sacrificed by cervical dislocation, and spleens were collected under sterile conditions then teased through a nylon mesh. Erythrocytes were lysed. Cells were washed and resuspended at 5×10^6/ml in RPMI-1640 media with 10% FBS.
1 ml of spleen cells were treated with or without ConA (5 μg/ml) or Sac (1:10000) and in the presence or absence of drugs in a final volume of 2 ml.
After 24 h culture at 37° C., 5% CO2 in a humidified incubator, cell-free supernatant was collected and frozen at −20° C. for ELISA.
IL-2, IL-12p40, IL-10, and IFN-γ levels were determined by Enzyme Linked Immuno Sorbance Assay (ELISA). TMB was taken as the enzyme substrate. The absorbance was measured at 450/570 nm by BioRad microplate reader. The amount of cytokines in sample supernatants were calculated based on standard curve using standard murine cytokines (rIL-2, rIL-12, rIL-10, and rIFN-γ).

[7] = Table 5, i.p., dosage 1 mg/kg/d for 5 days, control 20

## CC(C)[C@]12O[C@H]1[C@@H]1O[C@]13[C@]1(O[C@H]1C[C@@]1(O)C4=C(CC[C@]31C)C(=O)OC4)[C@@H]2O [LLDT-8, (5R)-5-hydroxytriptolide]
[1]
  murine allograft survival: prolonged murine allograft survival
[2]; [7]
  Body weight after i.p.: 21/21 g
  Body weight before i.p.: 21/21 g
[2]; Table 5, i.p., dosage 1 mg/kg/d for 5 days, control 31.2
  Right ear: 35.5 mg
[2]; Table 5, i.p., dosage 1 mg/kg/d for 5 days, control 32.6
  Ear swelling: 21.4 mg
[2]; Table 5, i.p., dosage 1 mg/kg/d for 5 days, control 63.8
  Left ear: 56.9 mg
[2]; Table 5, i.p., dosage 1 mg/kg/d for 5 days, control 142.4
  Spleen: 140.3 mg
[2]; Table 6, i.p. once a day for 2 days, ICR mice, dosage 0.04 mg/kg, control 30.0
  Right ear: 29.4 mg
[2]; Table 6, i.p. once a day for 2 days, ICR mice, dosage 0.04 mg/kg, control 31.1
  Ear swelling: 26.1 mg
[2]; Table 6, i.p. once a day for 2 days, ICR mice, dosage 0.04 mg/kg, control 61.1
  Left ear: 55.5 mg
[2]; Table 6, i.p. once a day for 2 days, ICR mice, dosage 0.2 mg/kg, control 30.0
  Right ear: 37.4 mg
[2]; Table 6, i.p. once a day for 2 days, ICR mice, dosage 0.2 mg/kg, control 31.1
  Ear swelling: 17.9 mg
[2]; Table 6, i.p. once a day for 2 days, ICR mice, dosage 0.2 mg/kg, control 61.1
  Left ear: 55.3 mg
[2]; Table 6, i.p. once a day for 2 days, ICR mice, dosage 1 mg/kg, control 30.0
  Right ear: 33.0 mg
[2]; Table 6, i.p. once a day for 2 days, ICR mice, dosage 1 mg/kg, control 31.1
  Ear swelling: 23.4 mg
[2]; Table 6, i.p. once a day for 2 days, ICR mice, dosage 1 mg/kg, control 61.1
  Left ear: 56.4 mg
[2]; Table 7, i.p. at low dosages, Balb/c mice, dosage 2 (mg/kg), control 23.3 ± 4.3
  Ear swelling X ± SD: 16.8 ± 5.4 mg
[2]; Table 7, i.p. at low dosages, Balb/c mice, dosage 2 (mg/kg), control 26.3
  Right ear: 27.5 mg
[2]; Table 7, i.p. at low dosages, Balb/c mice, dosage 2 (mg/kg), control 49.6
  Left ear: 44.3 mg
[2]; Table 7, i.p. at low dosages, Balb/c mice, dosage 8 (mg/kg), control 23.3 ± 4.3
  Ear swelling X ± SD: 16.6 ± 4.1 mg
[2]; Table 7, i.p. at low dosages, Balb/c mice, dosage 8 (mg/kg), control 26.3
  Right ear: 29.7 mg
[2]; Table 7, i.p. at low dosages, Balb/c mice, dosage 8 (mg/kg), control 49.6
  Left ear: 46.3 mg
[2]; Table 7, i.p. at low dosages, Balb/c mice, dosage 40 (mg/kg), control 23.3 ± 4.3
  Ear swelling X ± SD: 16.9 ± 2.7 mg
[2]; Table 7, i.p. at low dosages, Balb/c mice, dosage 40 (mg/kg), control 26.3
  Right ear: 25.7 mg
[2]; Table 7, i.p. at low dosages, Balb/c mice, dosage 40 (mg/kg), control 49.6
  Left ear: 42.6 mg
[2]; Table 7, i.p. at low dosages, Balb/c mice, dosage 200 (mg/kg), control 23.3 ± 4.3
  Ear swelling X ± SD: 17.1 ± 5.1 mg
[2]; Table 7, i.p. at low dosages, Balb/c mice, dosage 200 (mg/kg), control 26.3
  Right ear: 27.2 mg
[2]; Table 7, i.p. at low dosages, Balb/c mice, dosage 200 (mg/kg), control 49.6
  Left ear: 44.3 mg
[2]; Table 8, i.p., Balb/c mice, dosage 0.4 (mg/kg), control 21.9
  Body weight after i.p.: 22.6 g
[2]; Table 8, i.p., Balb/c mice, dosage 0.4 (mg/kg), control 22.4
  Body weight before i.p.: 22.3 g
[2]; Table 8, i.p., Balb/c mice, dosage 0.4 (mg/kg), control 22.7 ± 2.1
  Ear swelling X ± SD: 17.7 ± 4.7 mg
[2]; Table 8, i.p., Balb/c mice, dosage 0.4 (mg/kg), control 26.4
  Right ear: 29.2 mg
[2]; Table 8, i.p., Balb/c mice, dosage 0.4 (mg/kg), control 49.1
  Left ear: 47.0 mg
[2]; Table 8, i.p., Balb/c mice, dosage 0.4 (mg/kg), control 154.0
  Spleen: 164.2 mg
[2]; Table 8, i.p., Balb/c mice, dosage 4 (mg/kg), control 21.9
  Body weight after i.p.: 21.8 g
[2]; Table 8, i.p., Balb/c mice, dosage 4 (mg/kg), control 22.4
  Body weight before i.p.: 21.4 g
[2]; Table 8, i.p., Balb/c mice, dosage 4 (mg/kg), control 22.7 ± 2.1
  Ear swelling X ± SD: 15.3 ± 4.7 mg
[2]; Table 8, i.p., Balb/c mice, dosage 4 (mg/kg), control 26.4
  Right ear: 26.8 mg
[2]; Table 8, i.p., Balb/c mice, dosage 4 (mg/kg), control 49.1
  Left ear: 42.1 mg
[2]; Table 8, i.p., Balb/c mice, dosage 4 (mg/kg), control 154.0
  Spleen: 163.3 mg
[2]; Table 8, i.p., Balb/c mice, dosage 40 (mg/kg), control 21.9
  Body weight after i.p.: 21.4 g
[2]; Table 8, i.p., Balb/c mice, dosage 40 (mg/kg), control 22.4
  Body weight before i.p.: 21.6 g
[2]; Table 8, i.p., Balb/c mice, dosage 40 (mg/kg), control 22.7 ± 2.1
  Ear swelling X ± SD: 17.1 ± 4.9 mg
[2]; Table 8, i.p., Balb/c mice, dosage 40 (mg/kg), control 26.4
  Right ear: 29.6 mg
[2]; Table 8, i.p., Balb/c mice, dosage 40 (mg/kg), control 49.1
  Left ear: 46.7 mg
[2]; Table 8, i.p., Balb/c mice, dosage 40 (mg/kg), control 154.0
  Spleen: 168.5 mg
[2]; Table 9, p.o., Balb/c mice, dosage 1 mg/kg/d for 2 days, control 19
  Body weight after (i.p.): 21/21 g
[2]; Table 9, p.o., Balb/c mice, dosage 1 mg/kg/d for 2 days, control 20
  Body weight before (i.p.): 21/21 g
[2]; Table 9, p.o., Balb/c mice, dosage 1 mg/kg/d for 2 days, control 23.4
  Ear swelling: 13.1 mg
[2]; Table 9, p.o., Balb/c mice, dosage 1 mg/kg/d for 2 days, control 25.9
  Right ear: 27.3 mg
[2]; Table 9, p.o., Balb/c mice, dosage 1 mg/kg/d for 2 days, control 49.3
  Left ear: 40.4 mg
[2]; Table 9, p.o., Balb/c mice, dosage 1 mg/kg/d for 2 days, control 125.8
  Spleen: 124.4 mg
[2]; Table 10, p.o., ICR mice, dosage 0.04 mg/kg, control 33.7
  Right ear: 35.2 mg
[2]; Table 10, p.o., ICR mice, dosage 0.04 mg/kg, control 41.5
  Ear swelling: 33.8 mg
[2]; Table 10, p.o., ICR mice, dosage 0.04 mg/kg, control 75.2
  Left ear: 69.0 mg
[2]; Table 10, p.o., ICR mice, dosage 0.2 mg/kg, control 33.7
  Right ear: 38.2 mg
[2]; Table 10, p.o., ICR mice, dosage 0.2 mg/kg, control 41.5
  Ear swelling: 30.0 mg
[2]; Table 10, p.o., ICR mice, dosage 0.2 mg/kg, control 75.2
  Left ear: 68.2 mg
[2]; Table 10, p.o., ICR mice, dosage 1 mg/kg, control 33.7
  Right ear: 39.4 mg
[2]; Table 10, p.o., ICR mice, dosage 1 mg/kg, control 41.5
  Ear swelling: 24.1 mg
[2]; Table 10, p.o., ICR mice, dosage 1 mg/kg, control 75.2
  Left ear: 63.5 mg
[3]
  IC50: 81 nM
[4]
  CD4+ and CD8+ T lymphocytes percentage: reduced CD4^+ and CD8^+ T lymphocytes percentage
[4]; at concentration below or near the IC50 for lymphocyte cytotoxicity
  apoptosis of murine T lymphocytes: induced the apoptosis of murine T lymphocytes
[5]; 48 h
  ED50 for inhibiting T lymphocyte proliferation induced by ConA: 0.05812 µg/mL
[5]; 48 h, read-out: ED50 for inhibiting T lymphocyte proliferation induced by ConA
  EC50: 155 nM
[5]; compared with CsA
  inhibitory activity weaker than CsA (T lymphocyte proliferation): about 5.4 fold
[6]; 0.3 nM
  IL-2 production by lymphocytes stimulated with ConA, Mean Value: 3857.2 pg/mL
[6]; 3 nM
  IL-2 production by lymphocytes stimulated with ConA, Mean Value: 3494.2 pg/mL
[6]; 30 nM
  IL-2 production by lymphocytes stimulated with ConA, Mean Value: 2872.7 pg/mL
